Reference: ChEMBL document CHEMBL5321294, “Evolution of Slow-Binding Inhibitors Targeting Histone Deacetylase Isoforms” (J Med Chem, 2023)
Non-standard residues stand in square brackets, D forms with d. Residues, ends and D or L forms follow the SMILES beside them. *: point of attachment. Asu = N[C@@H](CCCCCC(=O)O)C(=O)O; NHOH = ON*

Legend:
Histone deacetylase 1 [1] = target: T1, Histone deacetylase 1 (Homo sapiens, UniProt Q13547); test: Binding affinity to human HDAC1 using AcLGK (Ac) -AMC as substrate assessed as residence time
T1 sequence (Q13547 whole entry): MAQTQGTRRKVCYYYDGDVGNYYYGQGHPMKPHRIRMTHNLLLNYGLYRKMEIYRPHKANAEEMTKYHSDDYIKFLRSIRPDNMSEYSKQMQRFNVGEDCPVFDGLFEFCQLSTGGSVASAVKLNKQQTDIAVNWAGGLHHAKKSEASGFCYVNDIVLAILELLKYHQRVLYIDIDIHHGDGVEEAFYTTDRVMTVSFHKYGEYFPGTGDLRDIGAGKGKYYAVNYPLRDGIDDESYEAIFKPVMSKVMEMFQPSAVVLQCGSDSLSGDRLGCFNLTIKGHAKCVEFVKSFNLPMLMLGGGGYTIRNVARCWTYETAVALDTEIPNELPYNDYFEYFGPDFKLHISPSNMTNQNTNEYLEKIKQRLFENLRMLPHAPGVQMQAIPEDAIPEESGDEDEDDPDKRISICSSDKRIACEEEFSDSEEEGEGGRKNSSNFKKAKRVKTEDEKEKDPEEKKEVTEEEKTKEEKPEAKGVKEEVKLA

Histone deacetylase 1 [2] = target: T1, Histone deacetylase 1; test: Inhibition of HDAC1 (unknown origin) measured after 1 hrs by fluorescence based assay
Histone deacetylase 2 [3] = target: T2, Histone deacetylase 2 (Homo sapiens, UniProt Q92769); test: Inhibition of HDAC2 (unknown origin) measured after 1 hrs by fluorescence based assay
T2 sequence (Q92769 whole entry): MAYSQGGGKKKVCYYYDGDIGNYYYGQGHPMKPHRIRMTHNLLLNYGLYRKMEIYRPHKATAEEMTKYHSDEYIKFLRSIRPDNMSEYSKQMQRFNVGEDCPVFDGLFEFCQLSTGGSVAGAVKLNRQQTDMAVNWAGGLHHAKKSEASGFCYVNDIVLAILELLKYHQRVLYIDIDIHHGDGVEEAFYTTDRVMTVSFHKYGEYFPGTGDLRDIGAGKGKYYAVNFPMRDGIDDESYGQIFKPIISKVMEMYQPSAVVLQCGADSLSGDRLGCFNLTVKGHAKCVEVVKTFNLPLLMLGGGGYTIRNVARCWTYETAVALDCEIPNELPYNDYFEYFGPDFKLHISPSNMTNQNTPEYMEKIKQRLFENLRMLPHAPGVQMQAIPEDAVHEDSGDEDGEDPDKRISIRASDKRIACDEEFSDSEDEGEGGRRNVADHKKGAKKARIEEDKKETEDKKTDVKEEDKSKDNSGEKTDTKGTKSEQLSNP

Histone deacetylase 2 [4] = target: T2, Histone deacetylase 2; test: Inhibition of HDAC2 (unknown origin) measured after 24 hrs by fluorescence based assay
Histone deacetylase 3 [5] = target: T3, Histone deacetylase 3 (Homo sapiens, UniProt O15379); test: Inhibition of HDAC3 (unknown origin) measured after 24 hrs by fluorescence based assay
T3 sequence (O15379 whole entry): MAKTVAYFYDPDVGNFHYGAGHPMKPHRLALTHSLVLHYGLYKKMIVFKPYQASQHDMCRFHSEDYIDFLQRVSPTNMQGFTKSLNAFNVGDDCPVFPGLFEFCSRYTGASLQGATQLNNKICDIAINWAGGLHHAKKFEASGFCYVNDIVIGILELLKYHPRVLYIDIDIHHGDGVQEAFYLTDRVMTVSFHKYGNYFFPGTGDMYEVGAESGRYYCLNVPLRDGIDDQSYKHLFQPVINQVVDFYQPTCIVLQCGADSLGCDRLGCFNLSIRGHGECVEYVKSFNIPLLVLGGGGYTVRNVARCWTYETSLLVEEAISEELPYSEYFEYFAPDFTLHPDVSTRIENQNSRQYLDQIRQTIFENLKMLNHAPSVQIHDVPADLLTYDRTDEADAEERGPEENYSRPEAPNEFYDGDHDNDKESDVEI

Histone deacetylase 1 [6] = target: T1, Histone deacetylase 1; test: Inhibition of HDAC1 (unknown origin) measured after 24 hrs by fluorescence based assay
Histone deacetylase 3 [7] = target: T3, Histone deacetylase 3; test: Inhibition of HDAC3 (unknown origin) measured after 1 hrs by fluorescence based assay
Histone deacetylase 3 [8] = target: T3, Histone deacetylase 3; test: Binding affinity to HDAC3 (unknown origin) assessed as inhibition constant
Histone deacetylase 1 [9] = target: T1, Histone deacetylase 1; test: Binding affinity to HDAC1 (unknown origin) assessed as inhibition constant
Homo sapiens [10] = organism: Homo sapiens; test: Selectivity ratio of Ki for human HDAC3 using Acetyl-Lys(Ac)-AMC as substrate to Ki for HDAC1 using Acetyl-Lys(Ac)-AMC as substrate
Histone deacetylase 3 [11] = target: T3, Histone deacetylase 3; test: Binding affinity to human HDAC3 using Acetyl-Lys(Ac)-AMC as substrate assessed as binding constant (k-1)
Histone deacetylase 2 [12] = target: T2, Histone deacetylase 2
Description: Binding affinity to HDAC2 (unknown origin) using Ac-LGKac-AMC as substrate assessed as half life

Histone deacetylase 3 [13] = target: T3, Histone deacetylase 3
Description: Binding affinity to HDAC3 (unknown origin) using Ac-LGKac-AMC as substrate assessed as half life

Histone deacetylase 3 [14] = target: T3, Histone deacetylase 3; remark: listed apart in the source
Histone deacetylase 1 [15] = target: T1, Histone deacetylase 1
in vivo = details: C57BL/6, mouse, brain, ip, 25 mg/kg
Description: Half life in C57BL/6 mouse brain at 25 mg/kg, ip

Histone deacetylase 3 [16] = target: T3, Histone deacetylase 3; test: Binding affinity to human HDAC3 assessed as residence time
Homo sapiens [17] = organism: Homo sapiens; test: Selectivity index, ratio of IC50 for Inhibition of human HDAC3 to IC50 for Inhibition of human HDAC1
Histone deacetylase 2 [18] = target: T2, Histone deacetylase 2; test: Binding affinity to human HDAC2 assessed as half life
Homo sapiens [19] = organism: Homo sapiens; test: Selectivity index, ratio of IC50 for Inhibition of human HDAC3 to Inhibition of human IC50 for HDAC2
Histone deacetylase 2 [20] = target: T2, Histone deacetylase 2; test: Binding affinity to human HDAC2 assessed as residence time
Histone deacetylase 3 [21] = target: T3, Histone deacetylase 3; test: Binding affinity to human HDAC3 assessed as binding rate constant (Kon)
Histone deacetylase 3 [22] = target: T3, Histone deacetylase 3; test: Binding affinity to human HDAC3 assessed as dissociation rate constant (Koff)
Histone deacetylase 3 [23] = target: T3, Histone deacetylase 3; test: Binding affinity to human HDAC3 assessed as half life
Histone deacetylase 1 [24] = target: T1, Histone deacetylase 1; test: Binding affinity to human HDAC1 assessed as half life
Histone deacetylase 2 [25] = target: T2, Histone deacetylase 2; remark: listed apart in the source
[26] = Half life in C57BL/6 mouse brain at 45 mg/kg, ip; assay type: ADME, organism-based
Histone deacetylase 3 [27] = target: T3, Histone deacetylase 3; test: Binding affinity to HDAC3 (unknown origin) assessed as inhibition constant(ki,1)
[28] = target: T4, Protein deacetylase HDAC6 (Homo sapiens) (UniProt Q9UBN7); test: Binding affinity to recombinant human HDAC6 using Ac-Leu-Gly-Lys(Ac)-AMC as substrate measured after 60 mins assessed as binding constant (k2) by fluorescence based assay
T4 sequence (whole entry): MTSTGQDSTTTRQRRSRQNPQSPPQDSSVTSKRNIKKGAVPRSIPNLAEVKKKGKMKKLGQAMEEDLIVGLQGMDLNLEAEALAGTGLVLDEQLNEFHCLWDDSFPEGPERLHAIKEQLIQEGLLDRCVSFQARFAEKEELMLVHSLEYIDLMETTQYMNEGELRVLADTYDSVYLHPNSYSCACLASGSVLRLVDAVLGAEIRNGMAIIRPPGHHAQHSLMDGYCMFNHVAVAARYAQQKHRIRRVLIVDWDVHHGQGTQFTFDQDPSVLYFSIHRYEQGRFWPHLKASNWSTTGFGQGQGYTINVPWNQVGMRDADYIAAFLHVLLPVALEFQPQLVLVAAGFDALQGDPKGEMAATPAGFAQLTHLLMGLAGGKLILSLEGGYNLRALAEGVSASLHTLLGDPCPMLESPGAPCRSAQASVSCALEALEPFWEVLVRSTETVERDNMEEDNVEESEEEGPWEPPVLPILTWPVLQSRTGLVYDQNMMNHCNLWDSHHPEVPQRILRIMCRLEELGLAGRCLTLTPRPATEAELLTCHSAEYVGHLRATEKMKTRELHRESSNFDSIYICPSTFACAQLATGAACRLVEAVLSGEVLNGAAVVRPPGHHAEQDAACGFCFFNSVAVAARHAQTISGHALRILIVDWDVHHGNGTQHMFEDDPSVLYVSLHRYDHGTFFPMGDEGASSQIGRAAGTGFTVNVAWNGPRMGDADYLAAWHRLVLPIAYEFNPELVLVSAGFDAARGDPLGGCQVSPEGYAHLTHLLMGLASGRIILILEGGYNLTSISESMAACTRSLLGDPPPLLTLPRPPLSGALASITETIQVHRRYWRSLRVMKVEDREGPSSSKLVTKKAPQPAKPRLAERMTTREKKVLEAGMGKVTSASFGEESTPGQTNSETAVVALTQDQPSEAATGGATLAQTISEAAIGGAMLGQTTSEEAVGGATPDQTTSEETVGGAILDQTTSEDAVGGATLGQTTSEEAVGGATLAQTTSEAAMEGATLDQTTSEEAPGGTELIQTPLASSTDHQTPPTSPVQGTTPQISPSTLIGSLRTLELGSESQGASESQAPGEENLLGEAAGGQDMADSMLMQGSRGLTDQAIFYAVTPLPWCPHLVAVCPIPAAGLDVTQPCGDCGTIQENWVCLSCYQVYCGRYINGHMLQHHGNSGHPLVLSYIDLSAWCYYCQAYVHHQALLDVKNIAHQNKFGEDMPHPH

[29] = target: T4, Protein deacetylase HDAC6 (Homo sapiens); test: Binding affinity to recombinant human HDAC6 using Ac-Leu-Gly-Lys(Ac)-AMC as substrate measured after 60 mins assessed as binding constant (k-2) by fluorescence based assay
[30] = target: T5, Protein deacetylase HDAC6 (Homo sapiens, UniProt Q9UBN7); test: Binding affinity to recombinant human HDAC6 using Ac-Leu-Gly-Lys(Ac)-AMC as substrate measured after 60 mins assessed as inhibition constant (ki,1) by fluorescence based assay
T5 sequence (Q9UBN7 whole entry): T4 sequence (whole entry)

Histone deacetylase 3 [31] = target: T3, Histone deacetylase 3; test: Binding affinity to HDAC3 (unknown origin) assessed as binding constant(k2)
[32] = target: T4, Protein deacetylase HDAC6 (Homo sapiens); test: Binding affinity to recombinant human HDAC6 using Ac-Leu-Gly-Lys(Ac)-AMC as substrate assessed as residence time
Histone deacetylase 3 [33] = target: T3, Histone deacetylase 3; test: Binding affinity to HDAC3 (unknown origin) assessed as residence time
[34] = target: T5, Protein deacetylase HDAC6; test: Binding affinity to recombinant human HDAC6 using Ac-Leu-Gly-Lys(Ac)-AMC as substrate measured after 60 mins assessed as inhibition constant by fluorescence based assay
Histone deacetylase 3 [35] = target: T3, Histone deacetylase 3; test: Binding affinity to HDAC3 (unknown origin) assessed as binding constant(k-2)
Histone deacetylase 1 [36] = target: T1, Histone deacetylase 1; details: HEK293T

## Nc1ccc(-c2ccco2)cc1NC(=O)c1ccc(-c2cn(CS(=O)(=O)c3ccccc3)nn2)cc1
Histone deacetylase 1 [1]
  TIME: 2.42 h

## NC/C(=C\C(=O)c1ccccc1)c1ccccc1
Histone deacetylase 1 [2]
  IC50: 5960 nM
Histone deacetylase 2 [3]
  IC50: 19600 nM
Histone deacetylase 2 [4]
  IC50: 26400 nM
Histone deacetylase 3 [5]
  IC50: > 50000 nM
Histone deacetylase 1 [6]
  IC50: 8650 nM
Histone deacetylase 3 [7]
  IC50: > 50000 nM

## Nc1ccc(-c2ccccc2)cc1NC(=O)CCCCCC(=O)Nc1ccccc1
Histone deacetylase 3 [8]
  Ki: 2500 nM
Histone deacetylase 1 [9]
  Ki: 7 nM
Homo sapiens [10]
  Ratio Ki: 350
Histone deacetylase 3 [11]
  K: 0.002 min⁻¹

## Cc1[nH]c2ccccc2c1CCNCc1ccc(/C=C/C(=O)NO)cc1
Histone deacetylase 2 [12]
  T1/2: > 1670 h
Histone deacetylase 3 [13]
  T1/2: > 1.05 h

## O=C(CCCCCCC(=O)Nc1ccccc1)NO [VORINOSTAT]
Histone deacetylase 3 [14]
  T1/2: < 0.0667 h
Histone deacetylase 1 [15]
  T1/2: < 4 min
In vivo
  half-life: 0.44 h

## CC(=O)Nc1ccc(C(=O)Nc2cc(-c3ccncc3)ccc2N)cc1
Histone deacetylase 3 [16]
  TIME: 10.4 h
Homo sapiens [17]
  Ratio IC50: 1040
Histone deacetylase 2 [18]
  T1/2: 30 h
Homo sapiens [19]
  Ratio IC50: 100
Histone deacetylase 2 [20]
  TIME: 41.7 h
Histone deacetylase 3 [21]
  K: 16.7 M⁻¹ s⁻¹
Histone deacetylase 3 [22]
  K: 0.002 min⁻¹
Histone deacetylase 3 [23]
  T1/2: 11.5 h
Histone deacetylase 1 [24]
  T1/2: 7.17 h

## CC(=O)Nc1ccc(C(=O)Nc2cc(-c3cccs3)ccc2N)cc1
Histone deacetylase 3 [14]
  T1/2: 20 h
Histone deacetylase 2 [25]
  T1/2: > 80 h
[26]
  half-life: 6.44 h

## O=C(CCCCC[C@@H]1NC(=O)[C@H]2CCCN2C(=O)[C@H](Cc2ccccc2)NC(=O)[C@H](Cc2ccccc2)NC1=O)NO (cyclo([Asu](NHOH)FF[dP]))
Histone deacetylase 3 [27]
  Ki: 1.4 nM
[28]
  K: 0.148 min⁻¹
[29]
  K: 0.006 min⁻¹
[30]
  Ki: 34 nM
Histone deacetylase 3 [31]
  K: 0.26 min⁻¹
Histone deacetylase 3 [8]
  Ki: 0.2 nM
[32]
  TIME: 2.92 h
Histone deacetylase 3 [33]
  TIME: 4.17 h
[34]
  Ki: ~1.2 nM
Histone deacetylase 3 [35]
  K: 0.004 min⁻¹

## Cc1ccc(NC(=O)CCCCCC(=O)Nc2ccccc2N)cc1
Histone deacetylase 1 [36]
  T1/2: 1.5 h
